These results are taken from PubChem BioAssay (NCI).

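Cultured in 96-well plates, cells were exposed to test compound for 48 hours across five concentrations. TGI: total growth inhibition.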 A value given as a limit tells only on which side of the number the result lay.

Some test systems named below: UO-31 renal; UACC-257 melanoma; K-562 leukemia; NCI-H522 lung; RXF 393 renal; OVCAR-4 ovarian; OVCAR-5 ovarian; HL-60(TB) leukemia; LOX IMVI melanoma; MALME-3M melanoma; NCI-H460 lung; UACC-62 melanoma; SNB-75 CNS; RPMI-8226 leukemia; SK-OV-3 ovarian; SF-268 CNS; HOP-62 NSCLC; SNB-19 CNS; MOLT-4 leukemia; HOP-92 NSCLC.
Holding throughout (assay): NCI-60 cell line screen, 48 h

On to `O=NN1C(c2ccccc2)CNC(=O)CC1c1ccccc1` (stereo not given), for which the TGI with UO-31 renal is above 83.6 µM; in the test on UACC-257 melanoma it was above 100 µM; in the test on K-562 leukemia, above 100 µM; in the test on NCI-H522 lung it was 46.8 µM; with RXF 393 renal, 81.1 µM; in the test with OVCAR-4 ovarian, above 100 µM. Also, the TGI in the test with OVCAR-5 ovarian was above 100 µM; in the test on HL-60(TB) leukemia, above 68.8 µM; in the test on LOX IMVI melanoma, above 100 µM; in the test with MALME-3M melanoma it was above 100 µM; with NCI-H460 lung it was above 100 µM; in the test with UACC-62 melanoma, above 100 µM. Besides, the TGI was above 67.9 µM in the test on SNB-75 CNS; above 100 µM in the test on RPMI-8226 leukemia; above 89 µM in the test on SK-OV-3 ovarian; above 100 µM with SF-268 CNS; above 100 µM in the test on HOP-62 NSCLC; above 93.2 µM in the test on SNB-19 CNS. In addition, the TGI is above 93 µM with MOLT-4 leukemia and above 100 µM with HOP-92 NSCLC.
